Results from patent EP0428132A1, “Pradimicin derivatives” (Bristol-Myers Squibb Company, priority 1989, dated 1991).
Converted amounts (≈) assume the structure as drawn. Where two headings read alike, the source gives them in different places. Marks after values point to notes of the source that are not given here.

Legend:
Candida albicans A25578 = assay: In vitro antifungal activity, serial agar dilution method (Table 1a); format: cell-based
Protocol: (§1) The inoculum size was adjusted to 10⁶ cells/ml, and a volume of approximately 0.003 ml of fungal suspension was applied to the surface of the antibiotic containing agar plates with a multiinoculator. After incubation, the lowest concentration of antibiotic causing virtually complete inhibition of fungal growth was determined as the minimum inhibitory concentration (MIC).

Candida albicans A9540 [1] = assay: as above; format: cell-based
Protocol: as §1

[2] = system: Candida paratropicalis A25825; assay: as above; format: cell-based
Protocol: as §1

[3] = system: Candida pseudotropicalis A25802; assay: as above; format: cell-based; details: Kluyveromyces marxianus, YM agar (pH 7.0, Difco), 30°C for 2 days (yeast) or 4 days (filamentous fungi), read-out: MICs, Candida pseudotropicalis A25802
Protocol: as §1

[4] = system: Candida tropicalis A25809; assay: as above; format: cell-based; details: YM agar (pH 7.0, Difco), 30°C for 2 days (yeast) or 4 days (filamentous fungi), read-out: MICs, Candida tropicalis A25809
Protocol: as §1

[5] = system: Candida tropicalis A25812; assay: as above; format: cell-based
Protocol: as §1

[6] = system: Cryptococcus neoformans A15053; assay: as above; format: cell-based
Protocol: as §1

[7] = system: Microsporum canis WW10218; assay: as above; format: cell-based; details: WW10218, pH 7, read-out: MICs, Microsporum canis WW10218
Protocol: as §1

[8] = system: Microsporum gypseum WW1107; assay: as above; format: cell-based; details: Nannizzia gypsea, YM agar (pH 7.0, Difco), 30°C for 2 days (yeast) or 4 days (filamentous fungi), read-out: MICs, Microsporum gypseum WW1107
Protocol: as §1

[9] = system: Saccharomyces cerevisiae A25803; assay: as above; format: cell-based; details: YM agar (pH 7.0, Difco), 30°C for 2 days (yeast) or 4 days (filamentous fungi), read-out: MICs, Saccharomyces cerevisiae A25803
Protocol: as §1

[10] = system: Trichophyton mentagrophytes A26771; assay: as above; format: cell-based
Protocol: as §1

[11] = system: Trichophyton rubrum A26761; assay: as above; format: cell-based; details: A26761, pH 7, read-out: MICs, Trichophyton rubrum A26761
Protocol: as §1

Candida albicans A9540 [12] = assay: Intravenous Candida albicans infection mouse model, Table 2 part B; format: in vivo, mice
Protocol: Several compounds were also evaluated in an intravenous Candida albicans […] infection mouse model. The test organism was suspended in saline approximately 10 times the median lethal dose of the fungus (10⁶ cells/mouse) were used to infect intravenously male ICR mice weighing 20 to 24 g. Groups of five mice at each dose level were given the test compounds intravenously or intramuscularly. The 50% protective dose (PD₅₀) was calculated from survival rates recorded 20 or 21 days after the fungal challenge. […]

[13] = Water solubility, protocol I (PBS, HPLC); format: physicochemical; details: Method I: PBS without CaCl₂ and MgCl₂.6H₂O
Protocol: The supernatant (2 µL) was analyzed by HPLC using the conditions specified for each compound in the Experimental Section. […] When not soluble, an additional amount of PBS (x µL) was added, sonicated, and centrifuged. When visibly soluble, the solution (2 µL) was injected to HPLC and the peak area was used for the known concentration of the sample.

M. gypseum A26835 = assay: In vitro antifungal activity, serial agar dilution method (Table 1a, footnote strain 4); format: cell-based, Microsporum gypseum; details: Nannizzia gypsea
Protocol: as §1

M. canis A26834 = assay: In vitro antifungal activity, serial agar dilution method (Table 1a, footnote strain 5); format: cell-based; details: Microsporum canis, A26834, pH 7, read-out: MICs, M. canis A26834
Protocol: as §1

[14] = A25578, YM agar (pH 7.0, Difco), 30°C for 2 days (yeast) or 4 days (filamentous fungi), read-out: MICs, Candida albicans A25578
[15] = A9540, YM agar (pH 7.0, Difco), 30°C for 2 days (yeast) or 4 days (filamentous fungi), read-out: MICs, Candida albicans A9540
[16] = YM agar (pH 7.0, Difco), 30°C for 2 days (yeast) or 4 days (filamentous fungi), read-out: MICs, Candida paratropicalis A25825
[17] = A25812, YM agar (pH 7.0, Difco), 30°C for 2 days (yeast) or 4 days (filamentous fungi), read-out: MICs, Candida tropicalis A25812
[18] = A15053, YM agar (pH 7.0, Difco), 30°C for 2 days (yeast) or 4 days (filamentous fungi), read-out: MICs, Cryptococcus neoformans A15053
[19] = A26771, YM agar (pH 7.0, Difco), 30°C for 2 days (yeast) or 4 days (filamentous fungi), read-out: MICs, Trichophyton mentagrophytes A26771
[20] = Part B: route IV, at 1 and 3.5 hrs after infection and twice on the following day, 21 days after fungal challenge, method of Spearman-Karber, male ICR mice

SMILES	MIC (Candida albicans A25578; [14])	MIC (Candida albicans A9540 [1]; [15])	MIC [2, 16]	MIC [3]	MIC [4]	MIC [5, 17]	MIC [6, 18]	MIC [7]	MIC [8]	MIC [9]	MIC [10, 19]	MIC [11]	PD₅₀ (Candida albicans A9540 [12]; mouse, in vivo)	solubility [13]	other results
COc1cc(O)c2c(c1)C(=O)c1c(cc3c(c1O)-c1c(cc(C)c(C(=O)N[C@H](C)C(=O)O)c1O)[C@H](O[C@@H]1O[C@H](C)[C@H](N(C)CC(=O)O)[C@H](O)[C@H]1O)[C@H]3O)C2=O [Ex. 4, N-carboxymethyl pradimicin B]	1.6 µg/mL (≈ 2.09 µM)	3.2 µg/mL (≈ 4.17 µM)	3.2 µg/mL (≈ 4.17 µM)	1.6 µg/mL (≈ 2.09 µM)	1.6 µg/mL (≈ 2.09 µM)	3.2 µg/mL (≈ 4.17 µM)	1.6 µg/mL (≈ 2.09 µM)	6.3 µg/mL (≈ 8.22 µM)	25 µg/mL (≈ 32.6 µM)	0.8 µg/mL (≈ 1.04 µM)	12.5 µg/mL (≈ 16.3 µM)	12.5 µg/mL (≈ 16.3 µM)	>50** mg/kg	> 10000 µg/mL	
COc1cc(O)c2c(c1)C(=O)c1c(cc3c(c1O)-c1c(cc(C)c(C(=O)N[C@H](C)C(=O)O)c1O)[C@H](O[C@@H]1O[C@H](C)[C@H](N(C)CC(N)=O)[C@H](O)[C@H]1O)[C@H]3O)C2=O [Ex. 5, N-(carbamoylmethyl) pradimicin B]	0.8 µg/mL (≈ 1.04 µM)	3.2 µg/mL (≈ 4.18 µM)	3.2 µg/mL (≈ 4.18 µM)	0.8 µg/mL (≈ 1.04 µM)	0.8 µg/mL (≈ 1.04 µM)	3.2 µg/mL (≈ 4.18 µM)	0.8 µg/mL (≈ 1.04 µM)	1.6 µg/mL (≈ 2.09 µM)	3.2 µg/mL (≈ 4.18 µM)	0.8 µg/mL (≈ 1.04 µM)	1.6 µg/mL (≈ 2.09 µM)	1.6 µg/mL (≈ 2.09 µM)		> 4000 µg/mL	PD₅₀ (Candida albicans A9540 [12]; [20]): >50** mg/kg
CNC(=O)N(C)[C@@H]1[C@H](O)[C@@H](O)[C@H](O[C@H]2c3cc(C)c(C(=O)N[C@H](C)C(=O)O)c(O)c3-c3c(cc4c(c3O)C(=O)c3cc(OC)cc(O)c3C4=O)[C@@H]2O)O[C@@H]1C [Ex. 18, N-(N-methylcarbamoyl) pradimicin B]				3.2 µg/mL (≈ 4.18 µM)								> 50 µg/mL		4000 µg/mL (≈ 5220 µM)	MIC (Candida albicans A25578; A25578, pH 7, read-out: MICs, Candida albicans A25578): 25 µg/mL (≈ 32.6 µM); MIC (Candida albicans A9540 [1]; A9540, pH 7, read-out: MICs, Candida albicans A9540): 25 µg/mL (≈ 32.6 µM); MIC ([2]; pH 7, read-out: MICs, Candida paratropicalis A25825): 25 µg/mL (≈ 32.6 µM); MIC ([5]; A25812, pH 7, read-out: MICs, Candida tropicalis A25812): 25 µg/mL (≈ 32.6 µM); MIC ([6]; A15053, pH 7, read-out: MICs, Cryptococcus neoformans A15053): > 50 µg/mL; MIC ([10]; A26771, pH 7, read-out: MICs, Trichophyton mentagrophytes A26771): > 50 µg/mL; MIC (M. gypseum A26835; A26835, pH 7, read-out: MICs, M. gypseum A26835): > 50 µg/mL; MIC (M. canis A26834): > 50 µg/mL
C=CCN(C)[C@@H]1[C@H](O)[C@@H](O)[C@H](O[C@H]2c3cc(C)c(C(=O)N[C@H](C)C(=O)O)c(O)c3-c3c(cc4c(c3O)C(=O)c3cc(OC)cc(O)c3C4=O)[C@@H]2O)O[C@@H]1C [Ex. 21, N-(Allyl) pradimicin B]	0.8 µg/mL (≈ 1.07 µM)	3.2 µg/mL (≈ 4.27 µM)	6.3 µg/mL (≈ 8.41 µM)	0.8 µg/mL (≈ 1.07 µM)	1.6 µg/mL (≈ 2.14 µM)	6.3 µg/mL (≈ 8.41 µM)	1.6 µg/mL (≈ 2.14 µM)	3.2 µg/mL (≈ 4.27 µM)	12.5 µg/mL (≈ 16.7 µM)	0.8 µg/mL (≈ 1.07 µM)	3.2 µg/mL (≈ 4.27 µM)	3.2 µg/mL (≈ 4.27 µM)	>50 mg/kg	2000 µg/mL (≈ 2670 µM)	
C#CCN(C)[C@@H]1[C@H](O)[C@@H](O)[C@H](O[C@H]2c3cc(C)c(C(=O)N[C@H](C)C(=O)O)c(O)c3-c3c(cc4c(c3O)C(=O)c3cc(OC)cc(O)c3C4=O)[C@@H]2O)O[C@@H]1C [Ex. 23, N-(Propargyl) pradimicin B]	1.6 µg/mL (≈ 2.14 µM)	50 µg/mL (≈ 67 µM)	> 50 µg/mL	1.6 µg/mL (≈ 2.14 µM)	1.6 µg/mL (≈ 2.14 µM)	50 µg/mL (≈ 67 µM)	1.6 µg/mL (≈ 2.14 µM)	25 µg/mL (≈ 33.5 µM)	50 µg/mL (≈ 67 µM)	0.8 µg/mL (≈ 1.07 µM)	25 µg/mL (≈ 33.5 µM)	25 µg/mL (≈ 33.5 µM)	>50 mg/kg	500 µg/mL (≈ 670 µM)	
COc1cc(O)c2c(c1)C(=O)c1c(cc3c(c1O)-c1c(cc(C)c(C(=O)N[C@H](C)C(=O)O)c1O)[C@H](O[C@@H]1O[C@H](C)[C@H](N(C)Cc4ccccc4)[C@H](O[C@@H]4OC[C@@H](O)[C@H](O)[C@H]4O)[C@H]1O)[C@H]3O)C2=O [Ex. 24, N-(Benzyl) pradimicin A]	> 50 µg/mL	> 50 µg/mL	> 50 µg/mL	12.5 µg/mL (≈ 13.4 µM)		> 50 µg/mL	1.6 µg/mL (≈ 1.72 µM)				3.2 µg/mL (≈ 3.44 µM)	3.2 µg/mL (≈ 3.44 µM)			MIC (M. gypseum A26835; A26835, strain per footnote **4, YM agar (pH 7.0, Difco), 30°C for 2 days (yeast) or 4 days (filamentous fungi), read-out: MICs, M. gypseum A26835): 50 µg/mL (≈ 53.7 µM); MIC (M. canis A26834): 25 µg/mL (≈ 26.9 µM)
CN[C@@H]1[C@H](O)[C@@H](O)[C@H](O[C@H]2c3cc(C)c(C(=O)N[C@H](C)C(=O)O)c(O)c3-c3c(cc4c(c3O)C(=O)c3cc(OC)cc(O)c3C4=O)[C@@H]2O)O[C@@H]1C [Pradimicin B, reference compound]	1.6 µg/mL (≈ 2.26 µM)	3.2 µg/mL (≈ 4.52 µM)	3.2 µg/mL (≈ 4.52 µM)	0.8 µg/mL (≈ 1.13 µM)	0.8 µg/mL (≈ 1.13 µM)	3.2 µg/mL (≈ 4.52 µM)	0.8 µg/mL (≈ 1.13 µM)	3.2 µg/mL (≈ 4.52 µM)	12.5 µg/mL (≈ 17.6 µM)	0.8 µg/mL (≈ 1.13 µM)	3.2 µg/mL (≈ 4.52 µM)	3.2 µg/mL (≈ 4.52 µM)		70 µg/mL (≈ 98.8 µM)	PD₅₀ (Candida albicans A9540 [12]; Part B: route IM, at 1 and 3.5 hrs after infection and twice on the following day, 21 days after fungal challenge, method of Spearman-Karber, male ICR mice): >50 mg/kg; PD₅₀ (Candida albicans A9540 [12]; [20]): 32 mg/kg
